Where “and” joins values, the source holds several entries; their conditions need not be identical. Identical values can stand only once. Counter-ions that a name gives are not always drawn. Marks after values point to notes of the source that are not given here.
Legend:
[1] = tested on: morphine-induced hypomotility; test: Charcoal meal assay (gastrointestinal motility) of Witkin et al.; type: in vivo, mice; conditions: for effect on percentage of intestine traveled in the absence of morphine: groups 4 and 6, no morphine; for effect on percentage of intestine traveled in the absence of morphine / alleviation of the depressant effect of morphine on intestinal transit: result in words; for alleviation of the depressant effect of morphine on intestinal transit: groups 5 and 7, morphine 10 mg/kg p.o.
From the text: To determine whether nalmefene glucuronide would alleviate morphine-induced hypomotility, the charcoal meal assay method of Witkin et al. (J. Pharmacol. Ext. Therep., 133: 400, 1961) was done on 56 mice. […]

[2] = Absorption and intestinal distribution of 14C labelled nalmefene glucuronide after oral administration; type: in vivo; conditions: rats
From the text: However the 2-3% of the dose which had reached the cecum by this time was almost exclusively free nalmefene. Therefore the glucuronide of an opioid antagonist provides a means of preventing narcotic-induced intestinal hypomotility without interfering with central nervous system effects of narcotics, such as analgesia.

opioid-dependant animals = test: Rapid Quantitative In Vivo Assay for Narcotic Antagonist of Katovich et al. (skin tail temperature rise as a CNS withdrawal sign); conditions: Figure 2; injection of 1000 µg/kg
From the text: The Rapid Quantitative In Vivo Assay for Narcotic Antagonist of Katovich et al. (Substance and Alcohol Actions/Misuse, vol 5: 87095, 1984) was used. This assay is based on the extreme sensitivity of opioid-dependant animals to narcotic antagonists. Injection of these animals with a narcotic antagonist produces severe central nervous system withdrawal signs. One of these signs is an abrupt rise in the skin temperature of the tail.

[3] = Morphine 10 mg/kg p.o. 30 minutes before drug p.o., 15 mg/kg or 2.9 x 10⁻⁶ M/kg nalmefene glucuronide, 2.9 x 10⁻⁶ M/kg nalmefene HCl, determined 30 min later
[4] = Saline p.o. 30 minutes before drug p.o. (no morphine), 15 mg/kg or 2.9 x 10⁻⁶ M/kg nalmefene glucuronide, 2.9 x 10⁻⁶ M/kg nalmefene HCl, determined 30 min later

Row | Structure (SMILES) | Percent Meal Traveled ± S.E.M. ([1]; mouse, in vivo) | reduction of the percentage of the intestine traveled ([1]; mouse, in vivo) | Percent Meal Traveled ± S.E.M. [1, 3] | Percent Meal Traveled ± S.E.M. [1, 4] | effect on percentage of intestine traveled in the absence of morphine [1] | alleviation of the depressant effect of morphine on intestinal transit ([1]; listed as nalmefene glucuronide) | alleviation of the depressant effect of morphine on intestinal transit ([1]; listed as nalmefene-3β-D-glucuronide) | alleviation of the depressant effect of morphine on intestinal transit ([1]; listed as nalmefene-β-D-glucuronide) | absorption following oral administration ([2]; doses as high as 40 mg/kg) | dose present in the small intestine still as nalmefene glucuronide ([2]; oral, 2 hours after dosing) | radioactivity in plasma ([2]; oral, 2 hours after dosing) | rise in skin tail temperature (opioid-dependant animals) | alleviation of the depressant effect of morphine on intestinal transit [1]
1 | CN1CC[C@]23c4c5ccc(O)c4O[C@H]2[C@@H](O)C=C[C@H]3[C@H]1C5 [Morphine] | 28 ± 2 (N=8)^c Percent and 31 ± 3 (N=8)^c,^g Percent | more than half | – | – | – | – | – | – | – | – | – | – | –
2 | C=C1CCC2(O)C3Cc4ccc(OC5OC(C(=O)O)C(O)C(O)C5O)c5c4C2(CCN3CC2CC2)C1O5 [Nalmefene Glucuronide, nalmefene-3β-D-glucuronide] | – | – | 58 ± 12 (N=5)^d,^e,^h,^i Percent | 66 ± 3 (N=8)^d Percent | neither nalmefene (group 6) nor nalmefene glucuronide (group 4) had any significant effect | protected the intestine against the depressant effect of morphine | as effective as nalmefene | as effective as nalmefene | not absorbed to any measurable extent | about 85% | No radioactivity could be detected | had no effect | –
3 | C=C1CC[C@@]2(O)[C@H]3Cc4ccc(O)c5c4[C@@]2(CCN3CC2CC2)[C@H]1O5 [Nalmefene HCl, 6-methylene-6-desoxy-N-cyclopropylmethyl-14-hydroxydihydronormorphine] | – | – | 66 ± 14 (N=5)^d,^e,^f Percent | 63 ± 2 (N=8)^c Percent | neither nalmefene (group 6) nor nalmefene glucuronide (group 4) had any significant effect | – | – | – | – | – | – | – | protected the intestine against the depressant effect of morphine

Source: patent EP0324212A1, “Glucuronic acid derivatives of opioid antagonists” (BAKER NORTON PHARMACEUTICALS, INC., priority 1988, dated 1989)
